Target: T1, PfTrpB^2B9 (Pyrococcus furiosus, UniProt Q8U093, E17G/F274S/F95L/I16V/I68V/T292S/T321A/V384A)
T1 construct: made in house; host or cells: E. coli BL21 E. cloni Express
Assay: TTN of β-substitution reaction with L-Thr with different nucleophiles
Format: biochemical
Conditions: for TTN: LC-MS
Protocol: Total Turnover Number (TTN) determination. Measurements were made using HPLC and LC-MS instruments. The amount of Trp formed was measured at 280 nm using a standard curve with trichlorobenzene as internal standard. […] This method is insensitive to loading volume and results agreed with measurements using a standard curve. […] This same technique was used to determine the TTN of the PfTrpB^2B9 reaction with different nucleophiles. […] Reactions were set up in triplicate using a total volume of 150 μL with 25 mM nucleophile and 250 mM L-Thr in 200 mM potassium phosphate pH 8.0 in borosilicate glass vials, as plastics can absorb indoles at high temperatures. Before addition of enzyme, all reagents were transferred into a Coy anaerobic chamber with <1 ppm O2 to rapidly exchange the atmosphere in the headspace of the vials to 95/5% N2/H2, which limits competing non-catalytic oxidation of indoles. Enzyme was added in the anaerobic environment with varied catalyst loading to ensure a robust product signal in subsequent analysis. Reaction vessels were capped before being removed from the anaerobic chamber and incubated in a 75° C. water bath for 24 hours. Reactions were quenched the next day by addition of 1 volume (150 μL) of 100% ACN, mixing, and allowing to rest at room temperature for 10 min. Quenched solutions were then diluted 5-fold with 40% ACN in water and analyzed via LC-MS. In all cases, auxiliary peaks that would indicate non-catalytic degradation of substrate were present at only low levels, contributing to <1% of the total integration signal for a given wavelength. For 7-azaindole, a second peak with m/z=220 was observed that was also found in larger scale reactions and whose properties are consistent with an N-alkylated product.
With these reaction conditions in hand, a characterization of the substrate scope of the reaction with Thr was performed. A small panel of indole-like nucleophiles were screened for reaction with PfTrpB^0B2 and Ser, and a significant boosts in activity was observed. This was expanded on this panel of nucleophiles and tests for activity with PfTrpB^2B9 using an excess of Thr was performed. Reactions were run to intermediate yield to determine the TTN with a given nucleophile and the identity of the products was established with a separate preparative-scale reaction using 100 mM nucleophile, 1.0 M Thr, and 0.02-0.25 mol % PfTrpB^2B9 catalyst. […] To probe the role of electronic effects on the C—C bond forming step, activity was tested with 4-fluoro and 5-fluoroindole, which are more closely isosteric with indole but have decreased electron density in the π-system. Product formation with each substrate and 3.4-fold decreased TTN with the 4-fluoro substrate was observed, which is more electron withdrawing at C-3 than the 5-fluoro substituent. The increased steric constraints of the activity site were again clear, as no activity with the 5-chloro-, 5-bromo, and 6-hydroxyindoles, which undergo reaction with Ser, was observed. […] This regioselectivity is well known with the indazole, which we found reacts exclusively to form the N-alkylated product. […] Inclusion of DTT reduced this side reaction.

[1] = 25 mM nucleophile, 250 mM L-Thr, 24 hour reaction at 75° C.

T1 sequence (Q8U093 other isoform, or with tags, fused parts or gaps I16V/E17G/I68V/F95L/F274S/T292S/T321A/V384A): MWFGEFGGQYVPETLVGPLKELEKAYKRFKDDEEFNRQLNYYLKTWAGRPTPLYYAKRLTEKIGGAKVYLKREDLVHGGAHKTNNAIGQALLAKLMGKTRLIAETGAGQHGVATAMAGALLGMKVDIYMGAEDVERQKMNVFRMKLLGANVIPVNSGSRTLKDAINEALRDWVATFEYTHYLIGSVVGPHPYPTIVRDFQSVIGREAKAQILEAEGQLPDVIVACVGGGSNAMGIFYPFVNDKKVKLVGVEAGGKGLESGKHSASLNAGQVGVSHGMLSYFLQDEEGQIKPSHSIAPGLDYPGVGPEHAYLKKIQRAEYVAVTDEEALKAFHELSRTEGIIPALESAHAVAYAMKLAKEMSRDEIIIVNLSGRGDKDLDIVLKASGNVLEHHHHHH

| SMILES | reactivity of nucleophile with PfTrpB^2B9 and excess Thr | TTN [1] | also measured |
| --- | --- | --- | --- |
| Sc1ccccc1 [thiophenol] | low turnover | – | – |
| c1ccc2c(c1)CCN2 [indoline] | no product formation | – | – |
| Cc1cc2ccccc2[nH]1 [2-Methylindole] | Good reactivity | 6400 ± 1400 | – |
| Fc1ccc2[nH]ccc2c1 [5-Fluoroindole] | – | 1300 ± 280 | – |
| c1cnc2[nH]ccc2c1 [7-Azaindole] | – | – | TTN, C-alkylation [1]: C-alkylation-220 ± 40; TTN, N-alkylation [1]: N-alkylation-32 ± 3 |
| Cc1ccc2cc[nH]c2c1 [6-Methylindole] | Good reactivity | 1100 ± 100 | – |
| c1ccc2[nH]ncc2c1 [Indazole] | – | 500 ± 40 | – |
| c1ccc2[nH]ccc2c1 [Indole] | – | 8200 ± 1600 | – |
| SCc1ccccc1 [benzyl mercaptan] | low turnover | – | – |
| Fc1cccc2[nH]ccc12 [4-Fluoroindole] | – | 378 ± 8 | decrease of TTN (4-fluoro versus 5-fluoro substrate): 3.4 fold |

Source: patent US12534748B2, “Engineered beta-subunit of tryptophan synthase for production of non-canonical amino acids” (California Institute of Technology, priority 2015, dated 2026)
